Columns and labels:
Type in all cases: in vivo
[1] = tested on: ivyleaf morningglory (Ipomoea hederacea, IPOHE); experiment: Post-emerge test, greenhouse herbicide activity screening; details: post-emerge, 14 days after application, rating scale 0-100
Outline: (§1)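 Rating: 0–100 visual injury, 14 DAA. Application: acetone, 187 l/ha, 15–1000 g ai/ha, flat-fan track sprayer with nozzle 40–45 cm above soil or canopy. Post-emerge runs used 0.25% v/v surfactant on 2–3 leaf plants.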

[2] = tested on: large crabgrass (Digitaria sanguinalis, DIGSA); experiment: as above; details: post-emerge, 14 days after application, rating scale 0-100
Outline: as §1

[3] = tested on: sicklepod (Cassia obtusifolia, CASOB); experiment: as above; details: post-emerge, 14 days after application, rating scale 0-100
Outline: as §1

[4] = tested on: johnsongrass (Sorghum halepense, SORHA); experiment: as above; details: post-emerge, 14 days after application, rating scale 0-100
Outline: as §1

[5] = tested on: green foxtail (Setaria viridis, SETVI); experiment: as above; details: post-emerge, 14 days after application, rating scale 0-100
Outline: as §1

[6] = tested on: velvetleaf (Abutilon theophrasti, ABUTH); experiment: as above; details: post-emerge, 14 days after application, rating scale 0-100
Outline: as §1

[7] = tested on: lambsquarters (Chenopodium album, CHEAL); experiment: as above; details: post-emerge, 14 days after application, rating scale 0-100
Outline: as §1

[8] = tested on: barnyardgrass (Echinochloa crus-galli, ECHCG); experiment: as above; details: post-emerge, 14 days after application, rating scale 0-100
Outline: as §1

[9] = tested on: redroot pigweed (Amaranthus retroflexus, AMARE); experiment: as above; details: post-emerge, 14 days after application
Outline: as §1

[10] = tested on: redroot pigweed (Amaranthus retroflexus, AMARE); experiment: Pre-emerge test, greenhouse herbicide activity screening; details: phytotoxicity rating 0-100, 14 days after application
Outline: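 Sandy loam pots; pre-emerge: sown 1 d pre-spray, surface-watered after, then bottom-watered. Post-emerge: sown 8–21 d before, 2–3 leaf stage, + 0.25% v/v NIS, bottom-watered. Acetone, 187 l/ha track spray, 15–1000 g ai/ha. 0–100 injury score, day 14.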

[11] = tested on: ivyleaf morningglory (Ipomoea hederacea, IPOHE); experiment: as above; details: phytotoxicity rating 0-100, 14 days after application
Outline: (§2)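 Fourteen days after spraying, crop and weed injury was graded visually from 0, no effect, to 100, every plant dead. Test substances were dissolved in acetone and applied at 15–1000 g ai/ha with a flat-fan nozzle. Application was either pre-emergence, one day after sowing, or post-emergence at the 2–3 leaf stage.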

[12] = tested on: large crabgrass (Digitaria sanguinalis, DIGSA); experiment: as above; details: phytotoxicity rating 0-100, 14 days after application
Outline: as §2

[13] = tested on: sicklepod (Cassia obtusifolia, CASOB); experiment: as above; details: phytotoxicity rating 0-100, 14 days after application
Outline: as §2

[14] = tested on: johnsongrass (Sorghum halepense, SORHA); experiment: as above; details: phytotoxicity rating 0-100, 14 days after application
Outline: as §2

[15] = tested on: green foxtail (Setaria viridis, SETVI); experiment: as above; details: phytotoxicity rating 0-100, 14 days after application
Outline: as §2

[16] = tested on: velvetleaf (Abutilon theophrasti, ABUTH); experiment: as above; details: phytotoxicity rating 0-100, 14 days after application
Outline: as §2

[17] = tested on: lambsquarters (Chenopodium album, CHEAL); experiment: as above; details: phytotoxicity rating 0-100, 14 days after application
Outline: as §2

[18] = tested on: barnyardgrass (Echinochloa crus-galli, ECHCG); experiment: as above; details: phytotoxicity rating 0-100, 14 days after application
Outline: as §2

[19] = tested on: upland rice (Oryza sp., var. Tebonnet, RICE); experiment: Pre-emerge test, crop safety; details: crop damage rating 0-100, 14 days after application
Outline: (§3)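 Compounds in acetone were track-sprayed at 15-1000 g ai/ha (187 l/ha) on sandy loam pots: pre-emerge one day after seeding, post-emerge at 2-3 leaf stage with 0.25% v/v non-ionic surfactant. Phytotoxicity was rated 14 days later on a 0 (no damage) to 100 (complete death) scale.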

[20] = tested on: field corn (Zea mays L., var. Dekalb 535, CORN); experiment: Pre-emerge test, crop safety; details: crop damage rating 0-100, 14 days after application
Outline: as §3

[21] = tested on: upland rice (Oryza sp., var. Tebonnet, RICE); experiment: Post-emerge test, crop safety; details: post-emerge, 14 days after application, rating scale 0-100
Outline: as §2

[22] = tested on: field corn (Zea mays L., var. Dekalb 535, CORN); experiment: Post-emerge test, crop safety; details: post-emerge, 14 days after application, rating scale 0-100
Outline: as §2

[23] = 63 g ai/ha, rating scale 0-100 (0 no damage, 100 complete death)
[24] = 250 g ai/ha, rating scale 0-100

With COc1c(Cl)cc(F)c(-n2c(=O)cc(C(F)(F)F)n(C)c2=O)c1NC(=O)OCc1ccccc1C(F)(F)F [4-33] the “phytotoxicity rating IPOHE” value ([1]; 63 g ai/ha) was 100, the “phytotoxicity rating IPOHE” value ([1]; 250 g ai/ha) was 100 and the “phytotoxicity rating DIGSA” value ([2]; 63 g ai/ha) was 10. The “phytotoxicity rating DIGSA” value ([2]; 250 g ai/ha) was 30, the “phytotoxicity rating CASOB” value ([3]; 63 g ai/ha) was 30 and the “phytotoxicity rating CASOB” value ([3]; 250 g ai/ha) was 70. For the same molecule, the “phytotoxicity rating SORHA” value ([4]; 63 g ai/ha) was 0, the “phytotoxicity rating SORHA” value ([4]; 250 g ai/ha) was 30 and the “phytotoxicity rating SETVI” value ([5]; 63 g ai/ha) was 30. The “phytotoxicity rating SETVI” value ([5]; 250 g ai/ha) was 40, the “phytotoxicity rating ABUTH” value ([6]; 63 g ai/ha) was 100 and the “phytotoxicity rating ABUTH” value ([6]; 250 g ai/ha) was 100. The “phytotoxicity rating CHEAL” value ([7]; 63 g ai/ha) was 90, the “phytotoxicity rating CHEAL” value ([7]; 250 g ai/ha) was 100 and the “phytotoxicity rating ECHCG” value ([8]; 63 g ai/ha) was 10. The “phytotoxicity rating ECHCG” value ([8]; 250 g ai/ha) was 20, the “phytotoxicity rating AMARE” value [9, 23] was 100 and the “phytotoxicity rating AMARE” value [9, 24] was 100. The “Pre-emerge Herbicidal Activity AMARE” value ([10]; 63 g ai/ha) was 100, the “Pre-emerge Herbicidal Activity AMARE” value ([10]; 250 g ai/ha) was 100 and the “Pre-emerge Herbicidal Activity IPOHE” value ([11]; 63 g ai/ha) was 0. The “Pre-emerge Herbicidal Activity IPOHE” value ([11]; 250 g ai/ha) was 70, the “Pre-emerge Herbicidal Activity DIGSA” value ([12]; 63 g ai/ha) was 45 and the “Pre-emerge Herbicidal Activity DIGSA” value ([12]; 250 g ai/ha) was 90. The “Pre-emerge Herbicidal Activity CASOB” value ([13]; 63 g ai/ha) was 0, the “Pre-emerge Herbicidal Activity CASOB” value ([13]; 250 g ai/ha) was 50 and the “Pre-emerge Herbicidal Activity SORHA” value ([14]; 63 g ai/ha) was 30. The “Pre-emerge Herbicidal Activity SORHA” value ([14]; 250 g ai/ha) was 80, the “Pre-emerge Herbicidal Activity SETVI” value ([15]; 63 g ai/ha) was 100 and the “Pre-emerge Herbicidal Activity SETVI” value ([15]; 250 g ai/ha) was 100. The “Pre-emerge Herbicidal Activity ABUTH” value ([16]; 63 g ai/ha) was 50, the “Pre-emerge Herbicidal Activity ABUTH” value ([16]; 250 g ai/ha) was 100 and the “Pre-emerge Herbicidal Activity CHEAL” value ([17]; 63 g ai/ha) was 100. For the same molecule, the “Pre-emerge Herbicidal Activity CHEAL” value ([17]; 250 g ai/ha) was 100, the “Pre-emerge Herbicidal Activity ECHCG” value ([18]; 63 g ai/ha) was 20 and the “Pre-emerge Herbicidal Activity ECHCG” value ([18]; 250 g ai/ha) was 80. For the same molecule, the “Pre-emerge Herbicidal Activity RICE” value ([19]; 63 g ai/ha) was 20, the “Pre-emerge Herbicidal Activity RICE” value ([19]; 250 g ai/ha) was 40 and the “Pre-emerge Herbicidal Activity CORN” value ([20]; 63 g ai/ha) was 10. The “Pre-emerge Herbicidal Activity CORN” value ([20]; 250 g ai/ha) was 50, the “phytotoxicity rating RICE (crop damage)” value ([21]; 63 g ai/ha) was 30 and the “phytotoxicity rating RICE (crop damage)” value ([21]; 250 g ai/ha) was 40. For the same molecule, the “phytotoxicity rating CORN (crop damage)” value ([22]; 63 g ai/ha) was 15 and the “phytotoxicity rating CORN (crop damage)” value ([22]; 250 g ai/ha) was 25.
In the case of COc1c(Cl)cc(F)c(-n2c(=O)cc(C(F)(F)F)n(C)c2=O)c1NC(=O)OCc1ccccc1[N+](=O)[O-] [4-34], the “phytotoxicity rating IPOHE” value ([1]; 63 g ai/ha) is reported as 100, the “phytotoxicity rating IPOHE” value ([1]; 250 g ai/ha) is reported as 90 and the “phytotoxicity rating DIGSA” value ([2]; 63 g ai/ha) is reported as 35. For the same molecule, the “phytotoxicity rating DIGSA” value ([2]; 250 g ai/ha) was 60, the “phytotoxicity rating CASOB” value ([3]; 63 g ai/ha) was 90 and the “phytotoxicity rating CASOB” value ([3]; 250 g ai/ha) was 100. For the same molecule, the “phytotoxicity rating SORHA” value ([4]; 63 g ai/ha) was 30, the “phytotoxicity rating SORHA” value ([4]; 250 g ai/ha) was 30 and the “phytotoxicity rating SETVI” value ([5]; 63 g ai/ha) was 50. The “phytotoxicity rating SETVI” value ([5]; 250 g ai/ha) was 75, the “phytotoxicity rating ABUTH” value ([6]; 63 g ai/ha) was 100 and the “phytotoxicity rating ABUTH” value ([6]; 250 g ai/ha) was 100. The “phytotoxicity rating CHEAL” value ([7]; 63 g ai/ha) was 100, the “phytotoxicity rating CHEAL” value ([7]; 250 g ai/ha) was 100 and the “phytotoxicity rating ECHCG” value ([8]; 63 g ai/ha) was 20. The “phytotoxicity rating ECHCG” value ([8]; 250 g ai/ha) was 50, the “phytotoxicity rating AMARE” value [9, 23] was 100 and the “phytotoxicity rating AMARE” value [9, 24] was 100. For the same molecule, the “Pre-emerge Herbicidal Activity AMARE” value ([10]; 63 g ai/ha) was 100, the “Pre-emerge Herbicidal Activity AMARE” value ([10]; 250 g ai/ha) was 100 and the “Pre-emerge Herbicidal Activity IPOHE” value ([11]; 63 g ai/ha) was 30. The “Pre-emerge Herbicidal Activity IPOHE” value ([11]; 250 g ai/ha) was 80, the “Pre-emerge Herbicidal Activity DIGSA” value ([12]; 63 g ai/ha) was 90 and the “Pre-emerge Herbicidal Activity DIGSA” value ([12]; 250 g ai/ha) was 95. For the same molecule, the “Pre-emerge Herbicidal Activity CASOB” value ([13]; 63 g ai/ha) was 40, the “Pre-emerge Herbicidal Activity CASOB” value ([13]; 250 g ai/ha) was 95 and the “Pre-emerge Herbicidal Activity SORHA” value ([14]; 63 g ai/ha) was 40. The “Pre-emerge Herbicidal Activity SORHA” value ([14]; 250 g ai/ha) was 80, the “Pre-emerge Herbicidal Activity SETVI” value ([15]; 63 g ai/ha) was 80 and the “Pre-emerge Herbicidal Activity SETVI” value ([15]; 250 g ai/ha) was 100. For the same molecule, the “Pre-emerge Herbicidal Activity ABUTH” value ([16]; 63 g ai/ha) was 100, the “Pre-emerge Herbicidal Activity ABUTH” value ([16]; 250 g ai/ha) was 100 and the “Pre-emerge Herbicidal Activity CHEAL” value ([17]; 63 g ai/ha) was 100. The “Pre-emerge Herbicidal Activity CHEAL” value ([17]; 250 g ai/ha) was 100, the “Pre-emerge Herbicidal Activity ECHCG” value ([18]; 63 g ai/ha) was 50 and the “Pre-emerge Herbicidal Activity ECHCG” value ([18]; 250 g ai/ha) was 90. The “Pre-emerge Herbicidal Activity RICE” value ([19]; 63 g ai/ha) was 50, the “Pre-emerge Herbicidal Activity RICE” value ([19]; 250 g ai/ha) was 95 and the “Pre-emerge Herbicidal Activity CORN” value ([20]; 63 g ai/ha) was 10. The “Pre-emerge Herbicidal Activity CORN” value ([20]; 250 g ai/ha) was 90, the “phytotoxicity rating RICE (crop damage)” value ([21]; 63 g ai/ha) was 40 and the “phytotoxicity rating RICE (crop damage)” value ([21]; 250 g ai/ha) was 80. The “phytotoxicity rating CORN (crop damage)” value ([22]; 63 g ai/ha) was 25 and the “phytotoxicity rating CORN (crop damage)” value ([22]; 250 g ai/ha) was 50.

From US6355799B1, “Substituted benzene compounds, process for their preparation, and herbicidal and defoliant compositions containing them” (ISK Americas Incorporated, priority 1997, dated 2002)
